# Measurements: patent US11040952B2, “Phthalazinone compound, method for preparation thereof, pharmaceutical composition thereof, and use thereof” (SHANGHAI INSTITUTE OF MATERIA MEDICA, CHINESE ACADEMY OF …, priority 2017, dated 2021)
# Like-named read-outs stand apart in the source and are kept apart here.
# Legend:
# [1] = MTT assay for cytotoxicity; format: cell-based, Human; details: human, HepG2.2.15 cells, half (50%) lethal concentration
# Procedure, shortened: (§1)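 HBV-transfected HepG2.2.15 cells were cultured with compound for 8 days at 37 °C in DMEM/10% FBS, with medium changed on day 4. Viability was read by MTT (4 h, then 12 h lysis, OD570) against control wells. CC50 is the concentration cutting viability by 50%.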
# HBV = HBV DNA content in the supernatant of cell culture (real-time PCR); format: cell-based, hepatitis B virus (HBV); details: inhibition of HBV DNA replication, HepG2.2.15 supernatant, 8 days
# Procedure, shortened: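 HepG2.2.15 cells stably carrying full-length HBV exposed to compounds for 8 days in DMEM with 10% FBS, medium renewed on day 4. Supernatant virion HBV DNA extracted and quantified by real-time PCR against a 1e^7-1e^4 IU/ml standard curve; IC50 calculated.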
# HBV capsid = biological target: T1, HBV capsid (Hepatitis B virus genotype D subtype ayw, UniProt P03146); assay: HBV capsid assembly, non-denaturing agarose gel electrophoresis; format: cell-based; details: FIG. 1; for content of HBV DNA in the capsid: Southern blot with HBV-specific probes; for generation of abnormal capsid (electrophoretic migration): non-denaturing agarose gel, anti-HBcAg Western blot
# T1 construct: expressed in transfected cells
# Method: 1×10^6 dispersed cells were added with […] of cell lysate (50 mM Tris-HCl pH 7.5, 1 mM EDTA, 0.5% Nonidet P-40), and lysed on ice for 15 min, with vortexing every 5 min to make sure that the cells were sufficiently lysed. The lysed cells were centrifuged at 10,000×g for 10 min at 4° C. to remove nuclei and cell debris. 20 μl of the cell lysate was added into the well of 1.2% or 1.8% agarose gel. Electrophoresis was run at 70V for 2.5 h at 4° C. […] After electrophoresis, the membrane-transferring was performed by siphon overnight. One sample was transferred to a nitrocellulose membrane (Amersham™ Hybond-ECL, GE), and the capsid was detected with anti-HBcAg antibody (Abcam) using Western blot method; another sample was in situ denatured with a denaturing solution (1.5 M NaCl, 0.5 M NaOH) for 45 min, neutralized with a neutralizing solution (1.5 M NaCl, 1 M Tris-HCl pH 7.4) for 45 min, and transferred to a nylon membrane (Amersham™ Hybond-N+, GE), and then the level of nucleic acid in the capsid was detected with HBV-specific probes by using Southern blot method.
# HepG2.2.15 cells = assay: MTT assay for cytotoxicity; format: cell-based, Human; details: 8 days, half (50%) lethal concentration
# Procedure, shortened: as §1
# [2] = Tissue distribution in mice; format: in vivo; details: po 10 mg/kg; for concentration at 1 h / concentration at 3 h / concentration at 8 h: mouse
# Method: 10 μl of a plasma and tissue sample was placed in a 1.5 ml centrifuge tube, added with 100 μl of an internal standard solution (5.00 ng/ml verapamil and 50.0 ng/ml Glibenclamide solution in acetonitrile), vortexed for 60 seconds, and then centrifuged for 3 min (at 12000 rpm); 75 μl of the supernatant was transferred to a 96-well plate loaded with an equal volume of water, and shaken for mixing well and then analyzed. The injection volume was 10 μl. Internal standard: an appropriate amount of verapamil and glibenclamide standards were dissolved and diluted in dimethyl sulfoxide (DMSO), shaken for mixing well, and prepared into a stock solution with a mass concentration of 2000 μg/ml, which was further diluted into internal standard working solutions of 5.00 ng/ml and 50.0 ng/ml. Stock solution: an appropriate amount of the compound was weighted and formulated into a 2.00 mg/ml stock solution with DMSO. Working solution: The stock solution was stepwisely diluted to obtain the solutions at each gradient concentration. 5.00 μl of reference standard working solution was added to 45.0 μl of a mice blank plasma and blank tissue. Then it was treated according to the method described in the section of “Sample pretreatment method”. Administration solution: a certain amount of a compound was precisely weighed and formulated into a 2.00 mg/ml milky white suspension in a ratio of 2.5% DMSO+97.5% (0.5% MC). Approximately 0.1 ml of orbital blood and liver was collected in EDTAK2 for anticoagulation from each animal that had been anesthetized with isoflurane. For the PO group, the blood was collected at 1 h, 3 h, and 8 h after administration of the test compound. After collection, the blood sample was analyzed by using comparative compounds I-70 and I-88.
# [3] = Hepatitis B virus, HepG2.2.15, 192 h
# [4] = liver, 1 h, read-out: Mean drug concentration, Liver
# [5] = liver, 3 h, read-out: Mean drug concentration, Liver
# [6] = liver, 8 h, read-out: Mean drug concentration, Liver
# [7] = plasma, 1 h, read-out: Mean drug concentration, Plasma
# [8] = plasma, 3 h, read-out: Mean drug concentration, Plasma
# [9] = plasma, 8 h, read-out: Mean drug concentration, Plasma
# T1 sequence (P03146 whole entry): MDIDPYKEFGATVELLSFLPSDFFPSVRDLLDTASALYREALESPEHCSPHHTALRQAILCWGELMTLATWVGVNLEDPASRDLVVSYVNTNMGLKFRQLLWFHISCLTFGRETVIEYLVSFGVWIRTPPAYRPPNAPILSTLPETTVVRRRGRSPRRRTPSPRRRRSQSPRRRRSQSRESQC
SMILES,CC50 at 8 days [1],IC50 (HBV; [3]),content of HBV DNA in the capsid (HBV capsid),generation of abnormal capsid (electrophoretic migration) (HBV capsid),"concentration at 1 h [2, 4]","concentration at 3 h [2, 5]","concentration at 1 h [2, 7]","concentration at 3 h [2, 8]","concentration at 8 h [2, 9]",further results
O=c1c2ccccc2c(-c2cccnc2F)nn1Cc1ccc(Cl)cc1 [Compound I-3],> 100 µM,500 nM,significantly reduced,induce the generation of an abnormal capsid with faster electrophoretic migration speed,–,–,–,–,–,–
COc1ccc(-c2nn(Cc3ccc(Cl)cc3)c(=O)c3ccccc23)c(F)n1 [Compound I-4],–,–,–,–,–,–,–,–,–,CC50 (HepG2.2.15 cells): > 100 µM; IC50 (HBV): 3100 nM
O=c1c2ccccc2c(-c2ccc(F)nc2F)nn1Cc1ccc(Cl)cc1 [Compound I-9],40.7 µM,300 nM,significantly reduced,induce the generation of an abnormal capsid with faster electrophoretic migration speed,–,–,–,–,–,–
Cc1ccc(-c2nn(Cc3ccc(Cl)cc3)c(=O)c3ccccc23)c(F)n1 [Compound I-10],81.8 µM,100 nM,significantly reduced,induce the generation of an abnormal capsid with faster electrophoretic migration speed,476 ng/g,318 ng/g,61 ng/mL,12.5 ng/mL,–,"concentration at 8 h [2, 6]: 2.91 ng/g; liver targeting [2]: good liver targeting in mice; Mean drug concentration, Plasma ([2]; 8 h): BLQ"
Nc1ccc(-c2nn(Cc3ccc(Cl)cc3)c(=O)c3ccccc23)c(F)n1 [Compound I-11],22.6 µM,900 nM,significantly reduced,induce the generation of an abnormal capsid with faster electrophoretic migration speed,1220 ng/g,1410 ng/g,33.3 ng/mL,32.5 ng/mL,23 ng/mL,"concentration at 8 h [2, 6]: 815 ng/g; liver targeting [2]: good liver targeting in mice"
CNc1ccc(-c2nn(Cc3ccc(Cl)cc3)c(=O)c3ccccc23)c(F)n1 [Compound I-12],15.7 µM,600 nM,significantly reduced,induce the generation of an abnormal capsid with faster electrophoretic migration speed,–,–,–,–,–,–
COc1ccc(-c2nn(Cc3ccc(Cl)cc3)c(=O)c3ccccc23)c(F)n1 [Compound I-20],–,–,–,–,–,–,–,–,–,CC50 (HepG2.2.15 cells): 33.3 µM; IC50 (HBV): 1300 nM
[2H]C(c1ccc(Cl)cc1)n1nc(-c2ccc(C)nc2F)c2ccccc2c1=O (stereo not drawn) [Compound I-24],> 100 µM,400 nM,significantly reduced,induce the generation of an abnormal capsid with faster electrophoretic migration speed,–,–,–,–,–,–
[2H]C(c1ccc(Cl)cc1)n1nc(-c2ccc(F)nc2F)c2ccccc2c1=O (stereo not drawn) [Compound I-26],> 100 µM,900 nM,significantly reduced,induce the generation of an abnormal capsid with faster electrophoretic migration speed,–,–,–,–,–,–
"Cc1cc(-c2ccc(F)nc2F)nn(Cc2ccc(Cl)cc2)c1=O [I-70, reference compound]",–,–,–,–,–,–,161 ng/mL,71.7 ng/mL,17.3 ng/mL,"Mean drug concentration, Liver ([2]; 1 h): BLQ^a; Mean drug concentration, Liver ([2]; 3 h): BLQ; Mean drug concentration, Liver ([2]; 8 h): BLQ"
"Cc1ccc(-c2cc(C)c(=O)n(Cc3ccc(Cl)cc3)n2)c(F)n1 [I-88, reference compound]",–,–,–,–,34.2 ng/g,9.64 ng/g,169 ng/mL,180 ng/mL,0.993 ng/mL,"Mean drug concentration, Liver ([2]; 8 h): BLQ"
N#Cc1ccc(Cn2nc(-c3ccc(F)nc3F)c3ccccc3c2=O)cc1 [IV-5],> 100 µM,120 nM,–,–,1030 ng/g,1050 ng/g,154 ng/mL,63.2 ng/mL,80.1 ng/mL,"concentration at 8 h [2, 6]: 1190 ng/g; liver targeting [2]: good liver targeting in mice"
N#Cc1ccc(Cn2nc(-c3ccc(C(F)(F)F)nc3F)c3ccccc3c2=O)cc1 [IV-15],> 100 µM,270 nM,–,–,7270 ng/g,4460 ng/g,549 ng/mL,437 ng/mL,257 ng/mL,"concentration at 8 h [2, 6]: 2800 ng/g; liver targeting [2]: good liver targeting in mice"
CN(C)CCNc1ccc(-c2nn(Cc3ccc(C#N)cc3)c(=O)c3ccccc23)c(F)n1 [IV-37],–,–,–,–,–,–,–,–,–,CC50 (HepG2.2.15 cells): 86.5 µM; IC50 (HBV): 2180 nM
